Test results as given in patent US12404275B2, “Pyrazolopyrazine derived compounds, pharmaceutical composition and use thereof” (PrimeGene (Beijing) Co., Ltd., priority 2019, dated 2025).
pIC50: −log10 of the molar value.

Assays:
Type in all cases: biochemical
JAK2 = JAK2 (Homo sapiens, UniProt O60674); test: Mobility shift assay, inhibitory activity on JAK2 kinase; conditions: JAK2 0.125 nM, ATP 1 mM, 3 μM Kinase Substrate 30
Experimental: (§1) Inhibitory Activities of the Compounds on JAK1, JAK2, JAK3 and Tyk2 (IC50)
(§2) The inhibitory activity of compounds on JAK family kinase was analyzed with Mobility shift assay. The screening platform is MSA based microfluidic chip technology, which applies the basic concept of capillary electrophoresis to microfluidic environment. The substrate used in the experiment is a poly-peptide labeled with fluorescent. Under the catalysis of kinase in the reaction system, the substrate is transformed into a product, with the charge changed accordingly. MSA technology could detect the substrate and the product with different charge separately.
(§3) A compound (powder) was dissolved in 100% DMSO to prepare a 10 mM storage solution. […] Detection in duplicate. Baricitinib (Selleckchem, Cat. S2851) was used as positive control. The serially diluted compound was mixed with JAK1/JAK2/JAK3/Tyk2 kinase (Cama, Cat. 08-144/08-045/08-046/08-147) with final concentration of 5 nM/0.125 nM/0.5 nM/2.5 nM in a Optiplate-384F plate and incubated at room temperature for 10 minutes. After that, ATP with final concentration of 1 mM and 3 μM Kinase Substrate 30 (GL Biochem, Cat. 117885) were added and mixed well. The reaction was carried out at room temperature for 20 min. Stop test solution was added to stop the reaction and the conversion rate was read by Caliper EZ Reader II.
(§4) Conversion %_sample: the conversion rate reading of the sample;
(§5) Conversion %_min: mean value of negative control, representing the conversion rate reading without kinase activity;
(§6) Coversion %_max: mean value of positive control, representing the conversion rate reading without compound inhibition.

Tyk2 [1] = test: Mobility shift assay, inhibitory activity on Tyk2 kinase; conditions: ratio of JAK2 IC50 to TyK2 IC50
Experimental: as §1, §2, §3, §4, §5, §6

Tyk2 [2] = target: Tyk2 (Homo sapiens, UniProt P29597); test: as above; conditions: mobility shift assay; Tyk2 2.5 nM; ATP 1 mM; 3 μM Kinase Substrate 30
Experimental: as §1, §2, §3, §4, §5, §6

Row | Structure (SMILES) | pIC50 (JAK2) | Selectivity of JAK2/TyK2 (Tyk2 [1]) | pIC50 (Tyk2 [2])
1 | CNc1nn([C@]2(CC#N)C[C@@H](C#N)C2)cc1-c1nc(-c2cnn(C)c2)cn2nccc12 [Example 38, (1r,3r)-3-(cyanomethyl)-3-(4-(6-(1-methyl-1H-pyrazol-4-yl)pyrazolo[1,5-a]pyrazin-4-yl)-3-(methylamino)-1H-pyrazol-1-yl)cyclobutane-1-carbonitrile] | 8.17 | 20 | 9.48
2 | CN(C)c1nn([C@]2(CC#N)C[C@@H](C#N)C2)cc1-c1nc(-c2cnn(C)c2)cn2nccc12 [Example 39, (1r,3r)-3-(cyanomethyl)-3-(3-(dimethylamino)-4-(6-(1-methyl-1H-pyrazol-4-yl)pyrazolo[1,5-a]pyrazin-4-yl)-1H-pyrazol-1-yl)cyclobutane-1-carbonitrile] | 6.70 | 54 | 8.43
3 | CC(=O)Nc1nn([C@]2(CC#N)C[C@@H](C#N)C2)cc1-c1nc(-c2cnn(C)c2)cn2nccc12 [Example 40, N-(1-((1r,3r)-3-cyano-1-(cyanomethyl)cyclobutyl)-4-(6-(1-methyl-1H-pyrazol-4-yl)pyrazolo[1,5-a]pyrazin-4-yl)-1H-pyrazol-3-yl)acetamide] |  |  | 6.86
4 | Cn1cc(-c2cn3ncnc3c(-c3cn([C@]4(CC#N)C[C@@H](C#N)C4)nc3N)n2)cn1 [Example 41, (1r,3r)-3-(3-amino-4-(6-(1-methyl-1H-pyrazol-4-yl)-[1,2,4]triazolo[1,5-a)pyrazin-8-yl)-1H-pyrazol-1-yl)-3-(cyanomethyl)cyclobutane-1-carbonitrile] |  |  | 7.43
5 | Cn1cc(-c2cc(-c3cn([C@]4(CC#N)C[C@@H](C#N)C4)nc3N)c3ccnn3c2)cn1 [Example 42, (1r,3r)-3-(3-amino-4-(6-(1-methyl-1H-pyrazol-4-yl)pyrazolo[1,5-a]pyridin-4-yl)-1H-pyrazol-1-yl)-3-(cyanomethyl)cyclobutane-1-carbonitrile] |  |  | 6.43
6 | Cn1cc(-c2cc(-c3cn([C@]4(CC#N)C[C@H](C#N)C4)nc3N)c3ccnn3c2)cn1 [Example 43, (is, 3s)-3-(3-amino-4-(6-(1-methyl-TH-pyrazol-4-yl)pyrazolo[1,5-a]pyridin-4-yl)-1H-pyrazol-1-yl)-3-(cyanomethyl)cyclobutane-1-carbonitrile] |  |  | 7.37
7 | Cn1cc(-c2cn3nccc3c(-c3cn([C@]4(CC#N)C[C@H](C#N)C4)c4ccncc34)n2)cn1 [Example 47, (1s,3s)-3-(cyanomethyl)-3-(3-(6-(1-methyl-1H-pyrazol-4-yl)pyrazolo[1,5-a]pyrazin-4-yl)-1H-pyrrolo[3,2-c]pyridin-1-yl)cyclobutane-1-carbonitrile] |  |  | 6.73
8 | Cn1cc(-c2cn3nccc3c(-c3cn([C@]4(CC#N)C[C@@H](C#N)C4)c4ccncc34)n2)cn1 [Example 48, (1r,3r)-3-(cyanomethyl)-3-(3-(6-(1-methyl-1H-pyrazol-4-yl)pyrazolo[1,5-a]pyrazin-4-yl)-1H-pyrrolo[3,2-c]pyridin-1-yl)cyclobutane-1-carbonitrile] | 8.09 | 22.5 | 9.44
9 | Cn1cc(-c2cn3nccc3c(-c3cn([C@]4(CC#N)C[C@H](C#N)C4)c4ncncc34)n2)cn1 [Example 49, (1s,3s)-3-(cyanomethyl)-3-(5-(6-(1-methyl-1H-pyrazol-4-yl)pyrazolo[1,5-a]pyrazin-4-yl)-7H-pyrrolo[2,3-d]pyrimidin-7-yl)cyclobutane-1-carbonitrile] |  |  | 6.93
10 | Cn1cc(-c2cn3nccc3c(-c3cn([C@]4(CC#N)C[C@H](C#N)C4)c4ncncc34)n2)cn1 [Example 50, (1r,3r)-3-(cyanomethyl)-3-(5-(6-(1-methyl-1H-pyrazol-4-yl)pyrazolo[1,5-a]pyrazin-4-yl)-7H-pyrrolo[2,3-d]pyrimidin-7-yl)cyclobutane-1-carbonitrile] | 8.00 | 24.4 | 9.39

Second part, the compound after the results:

Row | pIC50 (JAK2) | Selectivity of JAK2/TyK2 (Tyk2 [1]) | pIC50 (Tyk2 [2]) | Structure (SMILES)
11 | 7.06 | 210 | 9.38 | Cn1cc(-c2cn3nccc3c(-c3cn(C4(CC#N)CN(CC#N)C4)nc3N)n2)cn1 [Example 1, 2,2′-(3-(3-amino-4-(6-(1-methyl-1H-pyrazol-4-yl)pyrazolo[1,5-a]pyrazine-4-yl)-1H-pyrazol-1-yl)azetidine-1,3-diyl)diacetonitrile]
12 | 7.19 | 168 | 9.42 | CCS(=O)(=O)N1CC(CC#N)(n2cc(-c3nc(-c4cnn(C)c4)cn4nccc34)c(N)n2)C1 [Example 2, 2-(3-(3-amino-4-(6-(1-methyl-TH-pyrazol-4-yl)pyrazolo[1,5-a]pyrazin-4-yl)-1H-pyrazol-1-yl)-1-(ethylsulfonyl)azetidin-3-yl)acetonitrile]
13 | 7.11 | 36.6 | 8.68 | CC(C)S(=O)(=O)N1CC(CC#N)(n2cc(-c3nc(-c4cnn(C)c4)cn4nccc34)c(N)n2)C1 [Example 3, 2-(3-(3-amino-4-(6-(1-methyl-1H-pyrazol-4-yl)pyrazolo[1,5-a]pyrazin-4-yl)-1H-pyrazol-1-yl)-1-(isopropylsulfonyl)azetidin-3-yl)acetonitrile]
14 |  |  | 5.76 | CC(C)S(=O)(=O)N1CC(CC#N)(n2cc(-c3nc(-c4cnn(C)c4)cn4ncc(C#N)c34)c(N)n2)C1 [Example 4, 4-(3-amino-1-(3-(cyanomethyl)-1-(isopropylsulfonyl)azetidin-3-yl)-1H-pyrazol-4-yl)-6-(1-methyl-1H-pyrazol-4-yl)pyrazolo[1,5-a]pyrazine-3-carbonitrile]
15 | 7.85 |  | 9.77 | Cn1cc(-c2cn3nccc3c(-c3cn([C@]4(CC#N)C[C@@H](C#N)C4)nc3N)n2)cn1 [Example 9, (1r,3r)-3-(3-amino-4-(6-(1-methyl-1H-pyrazol-4-yl)pyrazolo[1,5-a]pyrazin-4-yl)-1H-pyrazol-1-yl)-3-(cyanomethyl)cyclobutyl-1-carbonitrile]
16 | 9.60 |  | 9.89 | Cn1cc(-c2cn3nccc3c(-c3cn([C@]4(CC#N)C[C@H](C#N)C4)nc3N)n2)cn1 [Example 10, (1s,3s)-3-(3-amino-4-(6-(1-methyl-1H-pyrazol-4-yl)pyrazolo[1,5-a]pyrazin-4-yl)-1H-pyrazol-1-yl)-3-(cyanomethyl)cyclobutyl-1-carbonitrile]
